# Experiments:
# Assay type in all cases: in vivo
# [1] = system: oilseed rape (Brassica napus); assay: Test C postemergence; conditions: scale 0 to 100, 0 is no effect, 100 is complete control
# Description: (§1) Seeds of plant species selected from blackgrass (Alopecurus myosuroides), Italian ryegrass (Lolium multiflorum), winter wheat (Triticum aestivum), galium (catchweed bedstraw, Galium aparine), corn (Zea mays), large (Lg) crabgrass (Digitaria sanguinalis), giant foxtail (Setaria faberii), johnsongrass (Sorghum halepense), lambsquarters (Chenopodium album), morningglory (Ipomoea coccinea), yellow nutsedge (Cyperus esculentus), pigweed (Amaranthus retroflexus), ragweed (common ragweed, Ambrosia elatior), soybean (Glycine max), barnyardgrass (Echinochloa crus-galli), oilseed rape (Brassica napus), waterhemp (common waterhemp, Amaranthus rudis), and velvetleaf (Abutilon theophrasti) were planted into a blend of loam soil and sand and treated preemergence with test chemicals formulated in a non-phytotoxic solvent mixture which included a surfactant. At the same time, plants selected from these crop and weed species and also chickweed (common chickweed, Stellaria media), kochia (Kochia scoparia), and wild oat (Avena fatua), were planted in pots containing Sunshine Redi-Earth® planting medium comprising spaghnum peat moss, vermiculite, starter nutrients and dolomitic limestone and treated with postemergence applications of test chemicals formulated in the same manner. Plants ranged in height from 2 to 18 cm (1- to 4-leaf stage) for postemergence treatments. Treated plants and controls were maintained in a greenhouse for 13 to 15 days, after which time all species were compared to controls and visually evaluated. Plant response ratings, summarized in Table C, are based on a scale of 0 to 100 where 0 is no effect and 100 is complete control. A dash (-) response means no test result.
# [2] = system: johnsongrass (Sorghum halepense); assay: Test C postemergence; conditions: scale 0 to 100, 0 is no effect, 100 is complete control
# Description: as §1
# [3] = system: ragweed (common ragweed, Ambrosia elatior); assay: Test C postemergence; conditions: scale 0 to 100, 0 is no effect, 100 is complete control
# Description: as §1
# [4] = system: giant foxtail (Setaria faberii); assay: Test C postemergence; conditions: scale 0 to 100, 0 is no effect, 100 is complete control
# Description: as §1
# [5] = system: galium (catchweed bedstraw, Galium aparine); assay: Test C postemergence; conditions: scale 0 to 100, 0 is no effect, 100 is complete control
# Description: as §1
# [6] = system: wheat (Triticum aestivum); assay: Test A postemergence application; conditions: approx. 10 days
# Method in brief: (§2)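 Greenhouse pot test in loam–sand blend. Preemergence treatment by directed soil spray at planting; postemergence spray on one- to two-leaf plants 2–10 cm high. Rated ~10 days later against untreated controls on a 0–100 scale, where 0 means no effect.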
# [7] = system: corn (Zea mays); assay: Test A postemergence application; conditions: approx. 10 days
# Method in brief: as §2
# [8] = system: ragweed (common ragweed, Ambrosia elatior); assay: Test A postemergence application; conditions: approx. 10 days
# Method in brief: as §2
# [9] = system: Italian ryegrass (Lolium multiflorum); assay: Test A postemergence application; conditions: approx. 10 days
# Method in brief: as §2
# [10] = system: barnyardgrass (Echinochloa crus-galli); assay: Test A postemergence application; conditions: approx. 10 days
# Method in brief: as §2
# [11] = system: kochia (Kochia scoparia); assay: Test A postemergence application; conditions: approx. 10 days
# Method in brief: as §2
# [12] = system: giant foxtail (Setaria faberii); assay: Test A postemergence application; conditions: approx. 10 days
# Method in brief: as §2
# [13] = system: blackgrass (Alopecurus myosuroides); assay: Test A postemergence application; conditions: approx. 10 days
# Method in brief: as §2
# [14] = system: pigweed (Amaranthus retroflexus); assay: Test A postemergence application; conditions: approx. 10 days
# Method in brief: as §2
# [15] = system: galium (catchweed bedstraw, Galium aparine); assay: Test A postemergence application; conditions: approx. 10 days
# Method in brief: as §2
# [16] = system: sedge, umbrella (small-flower umbrella sedge, Cyperus difformis); assay: Test B flooded paddy test; parameters: key: 0 = no effect, 100 = complete control; conditions: Flood, 250 g ai/ha applied to paddy water at 2-leaf stage; visually evaluated after 13 to 15 days; scale 0 (no effect) to 100 (complete control)
# Method in brief: (§3)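 In-water application to pots flooded 3 cm deep, plants at 2-leaf stage. Held in greenhouse 13–15 days at constant flood depth. Scored 0–100 by eye against controls.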
# [17] = system: rice (Oryza sativa); assay: Test B flooded paddy test; parameters: key: 0 = no effect, 100 = complete control; conditions: Flood, 250 g ai/ha applied to paddy water at 2-leaf stage; visually evaluated after 13 to 15 days; scale 0 (no effect) to 100 (complete control)
# Method in brief: as §3
# [18] = system: barnyardgrass (Echinochloa crus-galli); assay: Test B flooded paddy test; parameters: key: 0 = no effect, 100 = complete control; conditions: Flood, 250 g ai/ha applied to paddy water at 2-leaf stage; visually evaluated after 13 to 15 days; scale 0 (no effect) to 100 (complete control)
# Method in brief: as §3
# [19] = system: ducksalad (Heteranthera limosa); assay: Test B flooded paddy test; parameters: key: 0 = no effect, 100 = complete control; conditions: Flood, 250 g ai/ha applied to paddy water at 2-leaf stage; visually evaluated after 13 to 15 days; scale 0 (no effect) to 100 (complete control)
# Method in brief: as §3
smiles,measurement,setting,value
"O=c1cccc(Oc2ncc(Cl)cn2)n1-c1ccc(Cl)cc1 [Compound 1, 1-(4-chlorophenyl)-6-[(5-chloro-2-pyrimidinyl)oxy]-2(1H)-pyridinone]","Plant response rating, Oilseed Rape",[1]; 16 g ai/ha,10
same,"Plant response rating, Oilseed Rape",[1]; 31 g ai/ha,30
same,"Plant response rating, Oilseed Rape",[1]; 62 g ai/ha,70
same,"Plant response rating, Oilseed Rape",[1]; 125 g ai/ha,80
same,"Plant response rating, Johnsongrass",[2]; 16 g ai/ha,0
same,"Plant response rating, Johnsongrass",[2]; 31 g ai/ha,5
same,"Plant response rating, Johnsongrass",[2]; 62 g ai/ha,5
same,"Plant response rating, Johnsongrass",[2]; 125 g ai/ha,5
same,"Plant response rating, Ragweed",[3]; 16 g ai/ha,10
same,"Plant response rating, Ragweed",[3]; 31 g ai/ha,70
same,"Plant response rating, Ragweed",[3]; 62 g ai/ha,35
same,"Plant response rating, Ragweed",[3]; 125 g ai/ha,40
same,"Plant response rating, Foxtail, Giant",[4]; 16 g ai/ha,5
same,"Plant response rating, Foxtail, Giant",[4]; 31 g ai/ha,10
same,"Plant response rating, Foxtail, Giant",[4]; 62 g ai/ha,10
same,"Plant response rating, Foxtail, Giant",[4]; 125 g ai/ha,10
same,"Plant response rating, Galium",[5]; 16 g ai/ha,40
same,"Plant response rating, Galium",[5]; 31 g ai/ha,45
same,"Plant response rating, Galium",[5]; 62 g ai/ha,80
same,"Plant response rating, Galium",[5]; 125 g ai/ha,85
same,"Plant response rating (0 to 100 scale, 0 no effect, 100 complete control), Wheat",[6]; 125 g ai/ha,30
same,"Plant response rating (0 to 100 scale, 0 no effect, 100 complete control), Wheat",[6]; 500 g ai/ha,40
same,"Plant response rating (0 to 100 scale, 0 no effect, 100 complete control), Corn",[7]; 125 g ai/ha,30
same,"Plant response rating (0 to 100 scale, 0 no effect, 100 complete control), Corn",[7]; 500 g ai/ha,30
same,"Plant response rating (0 to 100 scale, 0 no effect, 100 complete control), Ragweed",[8]; 125 g ai/ha,20
same,"Plant response rating (0 to 100 scale, 0 no effect, 100 complete control), Ragweed",[8]; 500 g ai/ha,20
same,"Plant response rating (0 to 100 scale, 0 no effect, 100 complete control), Ryegrass, Italian",[9]; 125 g ai/ha,0
same,"Plant response rating (0 to 100 scale, 0 no effect, 100 complete control), Ryegrass, Italian",[9]; 500 g ai/ha,70
same,"Plant response rating (0 to 100 scale, 0 no effect, 100 complete control), Barnyardgrass",[10]; 125 g ai/ha,20
same,"Plant response rating (0 to 100 scale, 0 no effect, 100 complete control), Barnyardgrass",[10]; 500 g ai/ha,100
same,"Plant response rating (0 to 100 scale, 0 no effect, 100 complete control), Kochia",[11]; 125 g ai/ha,90
same,"Plant response rating (0 to 100 scale, 0 no effect, 100 complete control), Kochia",[11]; 500 g ai/ha,100
same,"Plant response rating (0 to 100 scale, 0 no effect, 100 complete control), Foxtail, Giant",[12]; 125 g ai/ha,70
same,"Plant response rating (0 to 100 scale, 0 no effect, 100 complete control), Foxtail, Giant",[12]; 500 g ai/ha,100
same,"Plant response rating (0 to 100 scale, 0 no effect, 100 complete control), Blackgrass",[13]; 125 g ai/ha,20
same,"Plant response rating (0 to 100 scale, 0 no effect, 100 complete control), Blackgrass",[13]; 500 g ai/ha,90
same,"Plant response rating (0 to 100 scale, 0 no effect, 100 complete control), Pigweed",[14]; 125 g ai/ha,100
same,"Plant response rating (0 to 100 scale, 0 no effect, 100 complete control), Pigweed",[14]; 500 g ai/ha,100
same,"Plant response rating (0 to 100 scale, 0 no effect, 100 complete control), Galium",[15]; 125 g ai/ha,50
same,"Plant response rating (0 to 100 scale, 0 no effect, 100 complete control), Galium",[15]; 500 g ai/ha,100
same,"Plant response rating, Sedge, Umbrella",[16],65
same,"Plant response rating, Rice",[17],10
same,"Plant response rating, Barnyardgrass",[18],20
same,"Plant response rating, Ducksalad",[19],45
O=c1cccc(Oc2ncc(Cl)cn2)n1-c1ncc(Cl)cn1 [Compound 6],"Plant response rating, Oilseed Rape",[1]; 16 g ai/ha,5
same,"Plant response rating, Oilseed Rape",[1]; 31 g ai/ha,15
same,"Plant response rating, Oilseed Rape",[1]; 62 g ai/ha,20
same,"Plant response rating, Oilseed Rape",[1]; 125 g ai/ha,10
same,"Plant response rating, Johnsongrass",[2]; 16 g ai/ha,0
same,"Plant response rating, Johnsongrass",[2]; 31 g ai/ha,5
same,"Plant response rating, Johnsongrass",[2]; 62 g ai/ha,5
same,"Plant response rating, Johnsongrass",[2]; 125 g ai/ha,5
same,"Plant response rating, Ragweed",[3]; 16 g ai/ha,25
same,"Plant response rating, Ragweed",[3]; 31 g ai/ha,45
same,"Plant response rating, Ragweed",[3]; 62 g ai/ha,40
same,"Plant response rating, Ragweed",[3]; 125 g ai/ha,70
same,"Plant response rating, Foxtail, Giant",[4]; 16 g ai/ha,5
same,"Plant response rating, Foxtail, Giant",[4]; 31 g ai/ha,5
same,"Plant response rating, Foxtail, Giant",[4]; 62 g ai/ha,5
same,"Plant response rating, Foxtail, Giant",[4]; 125 g ai/ha,10
same,"Plant response rating, Galium",[5]; 16 g ai/ha,50
same,"Plant response rating, Galium",[5]; 31 g ai/ha,60
same,"Plant response rating, Galium",[5]; 62 g ai/ha,60
same,"Plant response rating, Galium",[5]; 125 g ai/ha,80
same,"Plant response rating (0 to 100 scale, 0 no effect, 100 complete control), Wheat",[6]; 31 g ai/ha,0
same,"Plant response rating (0 to 100 scale, 0 no effect, 100 complete control), Wheat",[6]; 125 g ai/ha,0
same,"Plant response rating (0 to 100 scale, 0 no effect, 100 complete control), Corn",[7]; 31 g ai/ha,0
same,"Plant response rating (0 to 100 scale, 0 no effect, 100 complete control), Corn",[7]; 125 g ai/ha,20
same,"Plant response rating (0 to 100 scale, 0 no effect, 100 complete control), Ragweed",[8]; 31 g ai/ha,30
same,"Plant response rating (0 to 100 scale, 0 no effect, 100 complete control), Ragweed",[8]; 125 g ai/ha,50
same,"Plant response rating (0 to 100 scale, 0 no effect, 100 complete control), Ryegrass, Italian",[9]; 31 g ai/ha,0
same,"Plant response rating (0 to 100 scale, 0 no effect, 100 complete control), Ryegrass, Italian",[9]; 125 g ai/ha,20
same,"Plant response rating (0 to 100 scale, 0 no effect, 100 complete control), Barnyardgrass",[10]; 31 g ai/ha,10
same,"Plant response rating (0 to 100 scale, 0 no effect, 100 complete control), Barnyardgrass",[10]; 125 g ai/ha,30
same,"Plant response rating (0 to 100 scale, 0 no effect, 100 complete control), Kochia",[11]; 31 g ai/ha,80
same,"Plant response rating (0 to 100 scale, 0 no effect, 100 complete control), Kochia",[11]; 125 g ai/ha,90
same,"Plant response rating (0 to 100 scale, 0 no effect, 100 complete control), Foxtail, Giant",[12]; 31 g ai/ha,10
same,"Plant response rating (0 to 100 scale, 0 no effect, 100 complete control), Foxtail, Giant",[12]; 125 g ai/ha,60
same,"Plant response rating (0 to 100 scale, 0 no effect, 100 complete control), Blackgrass",[13]; 31 g ai/ha,10
same,"Plant response rating (0 to 100 scale, 0 no effect, 100 complete control), Blackgrass",[13]; 125 g ai/ha,50
same,"Plant response rating (0 to 100 scale, 0 no effect, 100 complete control), Pigweed",[14]; 31 g ai/ha,80
same,"Plant response rating (0 to 100 scale, 0 no effect, 100 complete control), Pigweed",[14]; 125 g ai/ha,90
same,"Plant response rating (0 to 100 scale, 0 no effect, 100 complete control), Galium",[15]; 31 g ai/ha,60
same,"Plant response rating (0 to 100 scale, 0 no effect, 100 complete control), Galium",[15]; 125 g ai/ha,90
same,"Plant response rating, Sedge, Umbrella",[16],85
same,"Plant response rating, Rice",[17],0
same,"Plant response rating, Barnyardgrass",[18],0
same,"Plant response rating, Ducksalad",[19],80

# — patent publication US9963442B2, “Pyridones as herbicides” (E I DU PONT DE NEMOURS AND COMPANY, priority 2014, dated 2018)
